Results reported in US9951049B2, “Pyrazole linked benzimidazole conjugates and a process for preparation thereof” (Council of Scientific & Industrial Reseach, priority 2014, dated 2018).

Tested on: MDA-MB-468
Test: NCI SRB screen, MDA-MB-468
Settings: Homo sapiens, MDA-MB-468, read-out: GI50 values

## COc1ccc2[nH]c(-c3cc(-c4cc(OC)c(OC)c(OC)c4)n[nH]3)nc2c1 [9f, 5-methoxy-2-(3-(3,4,5-trimethoxyphenyl)-1H-pyrazol-5-yl)-1H-benzo[d]imidazole]
  GI50: 380 nM
